Data published in ChEMBL document CHEMBL4270672, “Synthesis and Biological Evaluation of Fused Tricyclic Heterocycle Piperazine (Piperidine) Derivatives As Potential Multireceptor Atypical Antipsychotics” (J Med Chem, 2018).
The source made the active and inactive calls. The calls are words filed in the database; no cut-off is given here.

Columns and labels:
[1] = Half life in Sprague-Dawley rat at 1 mg/kg, iv by LC-MS/MS analysis; assay type: ADME, organism-based; settings: in vivo
Mus musculus [2] = test: Induction of serum prolactin levels in Kunming mouse at 0.6 to 5.4 mg/kg, po administered for 28 days measured at 180 mins post last dose by EIA; assay type: organism-based; settings: in vivo, 3 h
[3] = Therapeutic index, ratio of ED50 for catalepsy in Kunming mouse to ED50 for MK-801-induced hyperactivity in Kunming mouse; assay type: toxicity, organism-based; settings: in vivo, read-out: Ratio ED50
[4] = biological target: T1, 5-hydroxytryptamine receptor 2A (Homo sapiens, UniProt P28223)
T1 sequence (P28223 whole entry): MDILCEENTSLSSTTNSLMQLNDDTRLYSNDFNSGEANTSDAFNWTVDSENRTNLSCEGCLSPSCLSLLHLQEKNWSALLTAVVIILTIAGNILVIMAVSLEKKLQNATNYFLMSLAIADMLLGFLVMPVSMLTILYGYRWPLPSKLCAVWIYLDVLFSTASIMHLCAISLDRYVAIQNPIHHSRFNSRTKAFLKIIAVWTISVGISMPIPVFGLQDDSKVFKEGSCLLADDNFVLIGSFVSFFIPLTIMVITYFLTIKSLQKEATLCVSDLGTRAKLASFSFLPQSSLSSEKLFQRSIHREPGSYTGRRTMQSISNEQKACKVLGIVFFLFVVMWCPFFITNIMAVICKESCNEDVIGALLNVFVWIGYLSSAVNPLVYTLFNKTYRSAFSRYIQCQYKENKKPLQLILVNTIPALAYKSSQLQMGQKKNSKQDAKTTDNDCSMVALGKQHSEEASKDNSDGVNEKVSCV

D(3) dopamine receptor = D(3) dopamine receptor (Rattus norvegicus, UniProt P19020)
D(3) dopamine receptor, sequence (P19020 whole entry): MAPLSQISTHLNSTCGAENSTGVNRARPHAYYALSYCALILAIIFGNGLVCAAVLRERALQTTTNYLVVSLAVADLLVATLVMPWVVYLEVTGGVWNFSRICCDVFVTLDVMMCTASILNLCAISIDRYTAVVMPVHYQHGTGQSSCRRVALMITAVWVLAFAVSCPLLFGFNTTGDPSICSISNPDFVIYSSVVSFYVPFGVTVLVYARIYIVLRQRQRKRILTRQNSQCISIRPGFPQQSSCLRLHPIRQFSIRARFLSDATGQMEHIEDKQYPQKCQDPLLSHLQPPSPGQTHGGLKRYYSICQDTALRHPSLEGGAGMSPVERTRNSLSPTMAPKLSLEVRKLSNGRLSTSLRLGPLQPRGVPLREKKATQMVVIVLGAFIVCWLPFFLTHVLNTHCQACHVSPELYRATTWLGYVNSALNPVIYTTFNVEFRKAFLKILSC

[5] = Displacement of [3H]-DTG from sigma2 receptor in guinea pig brain membranes after 120 mins by liquid scintillation counting; assay type: cell membranes, Cavia porcellus, Membrane
[6] = biological target: T2, 5-hydroxytryptamine receptor 2C (Rattus norvegicus, UniProt P08909)
T2 sequence (P08909 whole entry): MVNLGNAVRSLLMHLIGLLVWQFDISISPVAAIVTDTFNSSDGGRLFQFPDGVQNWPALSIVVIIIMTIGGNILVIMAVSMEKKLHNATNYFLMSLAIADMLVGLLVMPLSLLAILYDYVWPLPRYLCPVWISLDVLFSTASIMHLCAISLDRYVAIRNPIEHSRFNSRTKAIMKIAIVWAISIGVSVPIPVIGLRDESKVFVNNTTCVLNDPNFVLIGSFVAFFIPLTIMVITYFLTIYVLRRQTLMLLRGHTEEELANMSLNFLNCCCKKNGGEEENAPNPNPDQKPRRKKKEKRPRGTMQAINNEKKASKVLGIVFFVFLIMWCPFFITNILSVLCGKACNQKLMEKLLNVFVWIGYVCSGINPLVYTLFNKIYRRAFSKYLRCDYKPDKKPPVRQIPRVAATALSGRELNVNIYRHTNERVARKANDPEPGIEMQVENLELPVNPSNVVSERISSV

Rattus norvegicus [7] = test: Cognitive enhancing effect in Sprague-Dawley rat assessed as increase in total exploration time for novel objects in retention trial at 0.1 to 0.3 mg/kg, po administered 1 hr prior to acquisition trial measured 24 hrs post acquisition trial for 5 mins by novel object recognition test; assay type: functional, organism-based
Mus musculus [8] = test: Induction of catalepsy in po dosed Kunming mouse measured after 60 secs; assay type: organism-based; settings: in vivo, 1 min
Mus musculus [9] = test: Induction of weight gain in Kunming mouse at 0.6 to 5.4 mg/kg, po administered for 28 days measured every day during compound dosing; assay type: organism-based; settings: in vivo, 672 h
[10] = biological target: T3, Adrenergic receptor alpha-1 (Rattus norvegicus, UniProt P15823+P23944+P43140)
T3 sequence (P15823 whole entry): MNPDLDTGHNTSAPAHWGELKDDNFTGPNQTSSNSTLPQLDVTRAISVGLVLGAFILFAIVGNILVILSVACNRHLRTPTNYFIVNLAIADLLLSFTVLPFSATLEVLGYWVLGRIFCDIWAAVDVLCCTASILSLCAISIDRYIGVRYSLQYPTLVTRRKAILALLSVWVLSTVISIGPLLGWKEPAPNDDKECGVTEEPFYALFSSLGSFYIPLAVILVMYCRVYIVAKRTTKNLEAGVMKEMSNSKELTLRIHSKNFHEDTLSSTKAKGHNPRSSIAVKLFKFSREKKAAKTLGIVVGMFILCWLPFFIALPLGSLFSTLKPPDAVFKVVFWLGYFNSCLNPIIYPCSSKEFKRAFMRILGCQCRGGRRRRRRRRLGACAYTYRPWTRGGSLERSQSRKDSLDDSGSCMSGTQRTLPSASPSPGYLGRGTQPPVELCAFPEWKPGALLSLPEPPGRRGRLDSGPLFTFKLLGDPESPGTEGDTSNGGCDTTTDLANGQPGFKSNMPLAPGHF
T3 sequence (P23944 whole entry): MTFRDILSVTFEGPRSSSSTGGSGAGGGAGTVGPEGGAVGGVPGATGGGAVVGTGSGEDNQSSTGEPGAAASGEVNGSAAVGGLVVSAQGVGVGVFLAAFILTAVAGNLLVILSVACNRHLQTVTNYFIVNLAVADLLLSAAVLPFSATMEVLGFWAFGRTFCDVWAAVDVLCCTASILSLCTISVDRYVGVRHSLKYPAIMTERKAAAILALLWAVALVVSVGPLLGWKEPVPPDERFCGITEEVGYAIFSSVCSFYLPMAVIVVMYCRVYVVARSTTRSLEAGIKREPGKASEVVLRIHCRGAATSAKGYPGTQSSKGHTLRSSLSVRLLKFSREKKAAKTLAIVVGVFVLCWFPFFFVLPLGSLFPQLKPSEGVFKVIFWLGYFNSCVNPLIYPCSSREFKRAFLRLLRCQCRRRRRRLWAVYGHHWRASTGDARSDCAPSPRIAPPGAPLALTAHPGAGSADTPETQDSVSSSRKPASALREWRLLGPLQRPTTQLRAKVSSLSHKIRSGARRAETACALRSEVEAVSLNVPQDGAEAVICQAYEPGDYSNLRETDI
T3 sequence (P43140 whole entry): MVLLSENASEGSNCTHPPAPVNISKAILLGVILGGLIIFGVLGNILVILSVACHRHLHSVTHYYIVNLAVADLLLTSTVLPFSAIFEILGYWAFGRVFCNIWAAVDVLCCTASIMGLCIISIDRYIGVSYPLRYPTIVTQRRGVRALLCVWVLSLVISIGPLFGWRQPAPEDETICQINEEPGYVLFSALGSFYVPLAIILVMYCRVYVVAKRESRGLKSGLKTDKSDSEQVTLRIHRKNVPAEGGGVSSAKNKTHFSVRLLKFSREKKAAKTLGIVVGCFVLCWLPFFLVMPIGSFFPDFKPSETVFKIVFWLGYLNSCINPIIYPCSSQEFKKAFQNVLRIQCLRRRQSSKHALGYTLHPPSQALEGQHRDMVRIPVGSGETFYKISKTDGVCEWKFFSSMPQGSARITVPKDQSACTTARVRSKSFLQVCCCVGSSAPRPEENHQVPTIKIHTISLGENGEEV
Description: Displacement of [3H]-prazosin from alpha-1 adrenergic receptor in rat cerebral cortex homogenates incubated for 60 mins by liquid scintillation counting

[11] = Half life in Sprague-Dawley rat at 10 mg/kg, po by LC-MS/MS analysis; assay type: ADME, organism-based; settings: in vivo
[12] = biological target: Voltage-gated inwardly rectifying potassium channel KCNH2 (Homo sapiens, UniProt Q12809)
Voltage-gated inwardly rectifying potassium channel KCNH2, sequence (Q12809 whole entry): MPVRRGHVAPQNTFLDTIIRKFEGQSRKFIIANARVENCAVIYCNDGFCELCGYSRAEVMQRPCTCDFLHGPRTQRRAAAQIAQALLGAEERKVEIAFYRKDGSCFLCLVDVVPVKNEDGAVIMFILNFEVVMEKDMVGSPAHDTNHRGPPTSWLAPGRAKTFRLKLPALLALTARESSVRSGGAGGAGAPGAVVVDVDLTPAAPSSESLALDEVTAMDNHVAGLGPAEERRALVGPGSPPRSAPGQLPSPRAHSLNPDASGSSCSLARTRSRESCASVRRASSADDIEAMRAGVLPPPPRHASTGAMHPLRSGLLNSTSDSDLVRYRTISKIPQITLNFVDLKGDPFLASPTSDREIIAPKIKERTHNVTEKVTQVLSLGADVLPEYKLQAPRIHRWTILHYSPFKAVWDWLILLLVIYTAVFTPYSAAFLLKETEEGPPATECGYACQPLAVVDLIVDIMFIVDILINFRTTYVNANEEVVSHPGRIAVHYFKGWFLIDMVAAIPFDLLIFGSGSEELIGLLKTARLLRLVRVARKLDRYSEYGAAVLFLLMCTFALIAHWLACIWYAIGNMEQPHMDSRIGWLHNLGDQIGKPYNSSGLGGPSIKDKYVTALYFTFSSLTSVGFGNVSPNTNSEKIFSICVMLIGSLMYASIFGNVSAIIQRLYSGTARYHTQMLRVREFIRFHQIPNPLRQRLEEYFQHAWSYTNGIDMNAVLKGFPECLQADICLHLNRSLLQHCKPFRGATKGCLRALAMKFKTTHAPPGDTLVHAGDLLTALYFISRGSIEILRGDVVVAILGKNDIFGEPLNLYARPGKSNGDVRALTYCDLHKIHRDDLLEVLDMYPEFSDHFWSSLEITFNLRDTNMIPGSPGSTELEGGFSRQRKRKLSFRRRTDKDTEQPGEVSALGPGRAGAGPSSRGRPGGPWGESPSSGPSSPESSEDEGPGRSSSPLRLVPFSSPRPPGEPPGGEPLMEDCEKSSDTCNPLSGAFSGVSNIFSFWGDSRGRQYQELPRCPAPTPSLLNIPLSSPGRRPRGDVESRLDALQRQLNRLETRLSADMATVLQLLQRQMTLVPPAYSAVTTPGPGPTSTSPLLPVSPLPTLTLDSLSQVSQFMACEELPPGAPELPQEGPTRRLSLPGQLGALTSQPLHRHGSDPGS
Description: Inhibition of human ERG expressed in HEK293 cells at -50 mV holding potential by patch clamp assay

[13] = biological target: T1, 5-hydroxytryptamine receptor 2A; test: Antagonist activity at serotonin 5-HT2A receptor (unknown origin) expressed in HEK293 cells assessed as inhibition of serotonin-induced calcium flux at 10 uM after 15 mins by calcium 4-dye based FLIPR assay relative to control; assay type: functional, cell-based
Rattus norvegicus [14] = test: AUC (0 to infinity) in Sprague-Dawley rat at 1 mg/kg, iv by LC-MS/MS analysis; assay type: ADME, organism-based; set-up: dose 1 mg/kg, route intravenous, time infinity; settings: in vivo
[15] = biological target: Muscarinic acetylcholine receptor M1 (Homo sapiens, UniProt P11229); test: Displacement of [3H]-QNB from M1 receptor (unknown origin) in cell membrane homogenates after 30 mins by liquid scintillation counting
Muscarinic acetylcholine receptor M1, sequence (P11229 whole entry): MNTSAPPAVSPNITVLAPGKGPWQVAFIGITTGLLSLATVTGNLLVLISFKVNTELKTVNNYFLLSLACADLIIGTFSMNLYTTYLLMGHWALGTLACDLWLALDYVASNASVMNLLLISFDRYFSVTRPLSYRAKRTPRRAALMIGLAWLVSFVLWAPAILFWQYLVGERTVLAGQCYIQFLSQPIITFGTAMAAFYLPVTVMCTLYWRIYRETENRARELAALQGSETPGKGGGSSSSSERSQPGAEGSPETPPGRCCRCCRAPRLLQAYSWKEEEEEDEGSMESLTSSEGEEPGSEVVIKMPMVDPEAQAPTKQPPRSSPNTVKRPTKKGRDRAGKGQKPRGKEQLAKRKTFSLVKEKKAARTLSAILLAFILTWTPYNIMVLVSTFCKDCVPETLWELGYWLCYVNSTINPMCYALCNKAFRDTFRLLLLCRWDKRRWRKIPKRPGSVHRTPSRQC

O=C(CCCCN1CCC(c2noc3cc(F)ccc23)CC1)c1cc2c3c(c1)CCN3C(=O)CC2
half-life [1]: 2.15 h
Activity (Mus musculus [2]): Non-Toxic
selectivity ratio [3]: 302
IC50 [4]: 257 nM
Ki (D(3) dopamine receptor): 1.66 nM
Ki [5]: > 1000 nM
Ki [6]: 616 nM
Activity (Rattus norvegicus [7]): Active
ED50 (Mus musculus [8]): 78.62 mg/kg
Activity (Mus musculus [9]): Non-Toxic
Ki [10]: 431 nM
half-life [11]: 2.02 h
IC50 [12]: 2910 nM
inhibition [13]: 100%
AUC (Rattus norvegicus [14]): 3151.2 ng·h/mL
Ki [15]: > 1000 nM
